Results on two compounds are retold here after US20220259202A1, “1-(4-(AMINOMETHYL)BENZYL)-2-BUTYL-2H-PYRAZOLO[3,4-C]QUINOLIN-4-AMINE DERIVATIVES AND RELATED COMPOUNDS AS TOLL-LIKE RECEPTOR (TLR) 7/8 AGONISTS, AS WELL AS ANTIBODY DRUG CONJUGATES THEREOF FOR USE IN CANCER THERAPY AND DIAGNOSIS” (SUTRO BIOPHARMA, INC., priority 2019, published 2022).

What all share (assay): HEK293 SEAP reporter assay, other TLRs (Biological Example 3)
Common to all, as to type: cell-based

The target in assay [1] is T1, mouse TLR7 (Mus musculus, UniProt P58681).
T1 construct: host or cells: HEK293
T1 sequence (P58681 27-1050): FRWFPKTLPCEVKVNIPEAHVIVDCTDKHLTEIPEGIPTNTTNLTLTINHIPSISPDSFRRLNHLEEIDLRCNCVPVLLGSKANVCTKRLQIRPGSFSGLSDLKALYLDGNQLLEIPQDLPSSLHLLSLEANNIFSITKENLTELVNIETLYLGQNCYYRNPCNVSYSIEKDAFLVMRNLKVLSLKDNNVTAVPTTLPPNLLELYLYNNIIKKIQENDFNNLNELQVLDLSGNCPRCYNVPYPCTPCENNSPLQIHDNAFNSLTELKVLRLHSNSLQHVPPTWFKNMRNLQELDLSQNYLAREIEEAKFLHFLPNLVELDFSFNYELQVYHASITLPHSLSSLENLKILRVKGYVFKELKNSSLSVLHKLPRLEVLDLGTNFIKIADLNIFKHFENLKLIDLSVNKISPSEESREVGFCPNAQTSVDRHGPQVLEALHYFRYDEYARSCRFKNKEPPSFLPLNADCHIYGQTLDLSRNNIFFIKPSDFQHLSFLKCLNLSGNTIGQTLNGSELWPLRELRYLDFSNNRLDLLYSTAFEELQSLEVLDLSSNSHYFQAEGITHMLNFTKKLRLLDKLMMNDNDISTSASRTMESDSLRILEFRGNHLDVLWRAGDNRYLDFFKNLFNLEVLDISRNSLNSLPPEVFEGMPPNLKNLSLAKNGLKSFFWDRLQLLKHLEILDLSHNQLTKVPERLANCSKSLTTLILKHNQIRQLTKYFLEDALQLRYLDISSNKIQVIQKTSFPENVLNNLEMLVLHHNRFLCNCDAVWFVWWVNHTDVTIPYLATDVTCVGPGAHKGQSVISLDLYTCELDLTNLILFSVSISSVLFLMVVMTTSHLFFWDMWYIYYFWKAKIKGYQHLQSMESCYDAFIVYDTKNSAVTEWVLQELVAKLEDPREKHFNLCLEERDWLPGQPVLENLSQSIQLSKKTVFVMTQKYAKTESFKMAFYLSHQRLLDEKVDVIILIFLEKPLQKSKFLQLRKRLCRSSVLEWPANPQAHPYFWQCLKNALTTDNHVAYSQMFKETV
Conditions: 16 hrs, * = Estimated. The source says: (§1) In this example, the activity of the Compound 1 to stimulate different human and mouse TLR pathways was investigated on HEK293 cells transfected with inducible SEAP (secreted embryonic alkaline phosphatase) reporter genes and also expressing different human TLRs (TLR2, TLR3, TLR4, TLR5, TLR7, TLR8, TLRS) or mouse TLRs (TLR2, TLR3, TLR4, TLR5, TLR7, TLR8, TLR13). Compound A
(§2) HEK293 reporter cell lines were purchased from Invivogen and cell lines were maintained in manufacture recommended culture medium with required supplemental antibiotics. On the day of assay, the cells were harvested with Accutase and counted by the Vi-CELL Cell Viability Analyzers. Cells were re-suspended in HEK blue detection medium and a total of 10000 cells were seeded in each well of a 384-well flat bottom plate. […] Assay plates were cultured at 37° C. in a CO2 incubator for 16 hrs. HEK-Blue™ Detection medium changes to a purple/blue color in the presence of secreted SEAP, which can be detected by spectrophotometry at 620-655 nm. Data was fitted with non-linear regression analysis, using a log(inhibitor) vs. response-variable slope, 3-parameter fit with GraphPad Prism.

The target in assay [2] is T2, mouse TLR13 (Mus musculus, UniProt Q6R5N8).
T2 construct: host or cells: HEK293
T2 sequence (Q6R5N8 69-991): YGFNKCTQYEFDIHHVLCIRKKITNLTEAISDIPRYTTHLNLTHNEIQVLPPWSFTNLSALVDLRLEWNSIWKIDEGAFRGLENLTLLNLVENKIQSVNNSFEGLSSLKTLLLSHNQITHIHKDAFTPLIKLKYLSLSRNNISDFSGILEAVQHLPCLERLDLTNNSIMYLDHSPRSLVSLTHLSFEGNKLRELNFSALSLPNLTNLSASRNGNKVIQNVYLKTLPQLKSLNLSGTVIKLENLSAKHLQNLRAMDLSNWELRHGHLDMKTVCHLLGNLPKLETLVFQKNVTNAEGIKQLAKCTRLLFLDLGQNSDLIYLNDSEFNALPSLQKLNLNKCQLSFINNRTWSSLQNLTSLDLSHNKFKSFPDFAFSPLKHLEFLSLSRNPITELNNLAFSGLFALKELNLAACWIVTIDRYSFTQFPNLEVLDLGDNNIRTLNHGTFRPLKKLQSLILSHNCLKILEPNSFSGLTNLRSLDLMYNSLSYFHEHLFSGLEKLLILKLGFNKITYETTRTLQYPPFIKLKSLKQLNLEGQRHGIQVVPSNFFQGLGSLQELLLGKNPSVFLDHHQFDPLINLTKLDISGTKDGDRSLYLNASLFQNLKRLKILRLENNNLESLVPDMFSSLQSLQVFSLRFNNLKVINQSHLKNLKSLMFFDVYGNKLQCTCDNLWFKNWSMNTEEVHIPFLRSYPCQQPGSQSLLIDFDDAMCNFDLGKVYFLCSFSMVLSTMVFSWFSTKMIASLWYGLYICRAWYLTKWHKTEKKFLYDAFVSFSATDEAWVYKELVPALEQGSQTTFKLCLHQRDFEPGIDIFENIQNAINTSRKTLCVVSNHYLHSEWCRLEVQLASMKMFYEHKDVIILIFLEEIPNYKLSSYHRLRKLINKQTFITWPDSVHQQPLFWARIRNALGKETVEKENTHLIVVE
Conditions: 16 hrs, up to 1 μM.
From the text: as §1, §2

For assay [3], the target named is T3, mouse TLR5 (Mus musculus, UniProt Q9JLF7).
T3 construct: host or cells: HEK293
Conditions: 16 hrs, up to 1 μM.
From the text: as §1, §2

T3 sequence (Q9JLF7 27-859): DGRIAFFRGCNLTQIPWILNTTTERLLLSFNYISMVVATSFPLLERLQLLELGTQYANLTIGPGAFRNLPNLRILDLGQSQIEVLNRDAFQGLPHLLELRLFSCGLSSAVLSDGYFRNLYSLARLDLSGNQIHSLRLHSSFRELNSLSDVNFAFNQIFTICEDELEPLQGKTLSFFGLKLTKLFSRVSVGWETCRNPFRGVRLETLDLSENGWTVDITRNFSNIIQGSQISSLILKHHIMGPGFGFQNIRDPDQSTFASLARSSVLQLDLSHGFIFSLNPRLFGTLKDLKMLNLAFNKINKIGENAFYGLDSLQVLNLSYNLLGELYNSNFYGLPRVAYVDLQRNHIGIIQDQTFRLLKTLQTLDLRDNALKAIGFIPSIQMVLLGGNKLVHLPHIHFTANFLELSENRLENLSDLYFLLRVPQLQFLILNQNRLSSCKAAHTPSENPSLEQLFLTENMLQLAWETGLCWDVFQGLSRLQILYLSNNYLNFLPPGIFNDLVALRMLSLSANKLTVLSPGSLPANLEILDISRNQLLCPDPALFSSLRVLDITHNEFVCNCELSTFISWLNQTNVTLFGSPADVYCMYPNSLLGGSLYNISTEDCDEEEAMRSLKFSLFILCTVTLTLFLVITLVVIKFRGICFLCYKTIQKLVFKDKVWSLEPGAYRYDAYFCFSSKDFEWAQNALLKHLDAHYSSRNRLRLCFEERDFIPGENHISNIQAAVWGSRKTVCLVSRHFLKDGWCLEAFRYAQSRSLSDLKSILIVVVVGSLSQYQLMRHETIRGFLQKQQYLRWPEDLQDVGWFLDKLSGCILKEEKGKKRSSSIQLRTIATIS

As a reminder, the EC50 is the midpoint of the concentration-response curve. With `CCCCc1nc2c(N)nc3ccccc3c2n1Cc1ccc(CN)cc1` [Compound A, reference compound], the figures for the EC50 in assay [1], in assay [2] and in assay [3] were 15.9 nM, more than 1000 nM and more than 1000 nM, respectively.
For the compound `CCCCn1nc2c(N)nc3ccccc3c2c1Cc1ccc(CN)cc1` [Compound 1, 1-(4-(aminomethyl)benzyl)-2-butyl-2H-pyrazolo[3,4-c]quinolin-4-amine], the EC50 is approximately 21.8 nM in assay [1], more than 1000 nM in assay [2] and more than 1000 nM in assay [3].
